US7951794B2, “Thiophene derivatives” (Actelion Pharmaceuticals Ltd., priority 2005, dated 2011)

Experiments:
[1] = biological target: recombinant human S1P1 receptor (Homo sapiens, UniProt P21453); assay: GTPγS assay to determine EC50 values; type: biochemical; conditions: 35S-GTPγS binding, membrane preparations of CHO cells expressing recombinant human S1P1 receptor, pH 7.4
Protocol: GTPγS binding assays are performed in 96 well microtiter plates (Nunc, 442587) in a final volume of 200 μl, using membrane preparations of CHO cells expressing recombinant human S1P1 receptor. Assay conditions are 20 mM Hepes (Fluka, 54461), 100 mM NaCl (Fluka, 71378), 5 mM MgCl2 (Fluka, 63064), 0.1% BSA (Calbiochem, 126609), 1 μM GDP (Sigma, G-7127), 2.5% DMSO (Fluka, 41644), […] ^35S-GTPγS (Amersham Biosciences, SJ1320). The pH is 7.4. Test compounds are dissolved and diluted in 100% DMSO and pre-incubated at room temperature for 30 min in 150 μl of the above assay buffer, in the absence of ^35S-GTPγS. After addition of 50 μl of ^35S-GTPγS, the assay is incubated for 1 h at room temperature.
The assay is terminated by transfer of the reaction mixture to a Multiscreen plate (Millipore, MAHFC1H60) using a cell harvester from Packard Biosciences, and the plates are washed with ice-cold 10 mM Na2HPO4/NaH2PO4 (70%/30%), dried, sealed at the bottom and, after addition of 25 μl MicroScint20 (Packard Biosciences, order no. 6013621), sealed on the top. Membrane-bound ^35S-GTPγS is measured with a TopCount from Packard Biosciences.
EC50 is the concentration of agonist inducing 50% of the maximal specific ^35S-GTPγS binding. Specific binding is determined by subtracting non-specific binding from maximal binding. Maximal binding is the amount of cpm bound to the Multiscreen plate in the presence of 10 μM of S1P. Non-specific binding is the amount of binding in the absence of an agonist in the assay.

[2] = tested on: circulating lymphocytes; assay: Assessment of in vivo efficacy: circulating lymphocytes after oral administration; conditions: 3 h after oral administration of 10 mg/kg to normotensive male Wistar rats, compared to vehicle-treated group
Protocol: The efficacy of the compounds of Formula (I) is assessed by measuring the circulating lymphocytes after oral administration of 3 to 30 mg/kg of a compound of Formula (I) to normotensive male Wistar rats. The animals are housed in climate-controlled conditions with a 12 h-light/dark cycle, and have free access to normal rat chow and drinking water. Blood is collected before and 3, 6 and 24 h after drug administration. Full blood is subjected to hematology using Advia Hematology system (Bayer Diagnostics, Zürich, Switzerland).
All data are presented as mean±SEM. Statistical analyses are performed by analysis of variance (ANOVA) using Statistica (StatSoft) and the Student-Newman-Keuls procedure for multiple comparisons. The null hypothesis is rejected when p<0.05.

Sequence of recombinant human S1P1 receptor (P21453 whole entry): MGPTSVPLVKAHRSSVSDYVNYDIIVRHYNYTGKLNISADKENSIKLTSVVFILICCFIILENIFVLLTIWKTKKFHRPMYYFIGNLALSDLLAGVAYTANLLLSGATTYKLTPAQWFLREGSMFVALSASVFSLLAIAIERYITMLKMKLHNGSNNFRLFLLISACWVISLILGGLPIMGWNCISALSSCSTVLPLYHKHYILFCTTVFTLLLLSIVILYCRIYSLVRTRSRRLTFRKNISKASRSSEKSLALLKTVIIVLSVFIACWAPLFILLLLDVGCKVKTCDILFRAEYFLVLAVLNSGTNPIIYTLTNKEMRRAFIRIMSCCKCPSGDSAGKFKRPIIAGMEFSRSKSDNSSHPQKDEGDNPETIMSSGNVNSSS

SMILES | EC50 [1] [µM] | Lymphocyte counts [2] [%]
CCc1sc(C(=O)CCc2cc(C)c(OC[C@@H](O)CO)c(C)c2)cc1-c1ccccc1 [Example 10, 3-[4-((S)-2,3-dihydroxy-propoxy)-3,5-dimethyl-phenyl]-1-(5-ethyl-4-phenyl-thiophen-2-yl)-propan-1-one] | 0.0067 | −48.5
CCc1sc(C(=O)CCc2cc(C)c(CC(O)CO)c(C)c2)cc1-c1ccccc1 (stereo not shown) [Example 11, 3-[4-(2,3-dihydroxy-propyl)-3,5-dimethyl-phenyl]-1-(5-ethyl-4-phenyl-thiophen-2-yl)-propan-1-one] | 0.0183 | –
CCc1sc(C(=O)CCc2cc(C)c(OC[C@@H](O)CO)c(C)c2)cc1-c1ccccc1C [Example 20, 3-[4-((S)-2,3-dihydroxy-propoxy)-3,5-dimethyl-phenyl]-1-(5-ethyl-4-o-tolyl-thiophen-2-yl)-propan-1-one] | 0.0063 | –
CCCc1sc(C(=O)CCc2cc(C)c(OC[C@@H](O)CO)c(C)c2)cc1-c1ccccc1 [Example 24, 3-[4-((S)-2,3-dihydroxy-propoxy)-3,5-dimethyl-phenyl]-1-(4-phenyl-5-propyl-thiophen-2-yl)-propan-1-one] | 0.0164 | –
CCc1ccccc1-c1cc(C(=O)CCc2cc(C)c(OC[C@@H](O)CO)c(C)c2)sc1CC [Example 31] | 0.0093 | –
CCc1sc(C(=O)CCc2cc(C)c(OC[C@@H](O)CO)c(C)c2)cc1-c1ccccc1OC [Example 50] | 0.0115 | –
